Reference: paper PMC12326981, “Novel C5α-substituted carbapenems enhance Mycobacterium abscessus killing via selective target binding and reduced hydrolysis by BlaMab” (Antimicrobial Agents and Chemotherapy, 2025)
Where “and” joins values, the source holds several entries; their conditions need not be identical. Equal entries are not always repeated. Marks after values point to notes of the source that are not given here.

What was measured:
[1] = Thermal stability in 7H9 broth at 30°C; conditions: for Degradation percentage / degradation after 24 h: 7H9 broth, 30°C; for Degradation percentage: 24 h; for degradation after 24 h: 50 mg/L and 10 mg/L (Fig. S2); for half-life: buffer
Experimental: The stability of the two compounds in 7H9 broth was assessed at 30°C at drug concentrations of 10, 50, and 100 mg/L, with each condition tested in triplicate. Absorbance at 240 nm was measured every 2 h over a 24 h period using a BioTek Synergy2 multimode reader, with data analyzed via Gen5 software to monitor degradation or changes in stability. To evaluate the impact of thermal instability, MIC tests were performed using Mab ATCC 19977. Compounds were tested at time points of 0 h (no incubation) and 6, 24, and 48 h of incubation at 30°C. Imipenem and meropenem, known to be thermally unstable β-lactams, were included as positive controls. The MIC results were recorded after 48 h of incubation. Detailed MIC testing protocols were identical to those described below.

[2] = test system: DDC; test: Mass spectrometric analysis of acyl-enzyme adducts; assay type: binding, Mycobacterium abscessus; parameters: key: (.) indicates no detectable binding; conditions: DDC (29,750); 1:10 molar ratio, 2 h; accuracy ±5 Da
Experimental: (§1) Truncated sequences of BlaMab (Δ1–30 blaMab), LDT1–5, DDC, PBP B, PonA2, and PBP-lipo (Δ1–41) were synthesized by Celtek Biosciences (Franklin, TN) and cloned into the pET28(a)+ vector. Purification of LDTs and PBPs was carried out as previously described ([15], [16], [20]). Briefly, clones were transformed into Escherichia coli BL21 (DE3), and protein expression was induced with 0.25 mM isopropyl β-d-1-thiogalactopyranoside. Cell pellets were resuspended in buffer containing 50 mM Tris (pH 8.0), 400 mM sodium chloride, and 1 mM Tris(2-carboxyethyl)phosphine hydrochloride and lysed by sonication. After centrifugation, the supernatant was purified using a His Prep FF column and eluted with 500 mM imidazole.
(§2) The purified proteins were incubated at room temperature with JDB/NA-1-157 and JDB/NA-1-208 at a molar ratio of 1:10 for 2 h. A quadrupole time-of-flight mass spectrometer (Waters Synapt-G2-Si) with electrospray ionization and a Waters Acquity H-Class UPLC system were used to analyze the samples. The liquid chromatography conditions were as follows: a BEH C18 column (1.7 µm, 2.1 × 50 mm) and a mobile phase consisting of 0.1% formic acid in water and 0.1% formic acid in acetonitrile, with a gradient elution from 10% to 90% acetonitrile over 11 min at a flow rate of 0.5 mL/min. The MS settings were optimized with a capillary voltage of 3 kV, a sampling cone voltage of 35 V, and source and desolvation temperatures of 100°C and 500°C, respectively. Gas flow rates were 100 L/h for the cone and 800 L/h for desolvation. The mass accuracy was maintained at ±5 Da.

[3] = biological target: LDT5 (Mycobacteroides abscessus, UniProt B1MHQ4); test: Mass spectrometric analysis of acyl-enzyme adducts; assay type: binding, Mycobacterium abscessus; parameters: key: (.) indicates no detectable binding; conditions: LDT5 (28,220); 1:10 molar ratio, 2 h; accuracy ±5 Da
Sequence of LDT5 (B1MHQ4 entry or part of it): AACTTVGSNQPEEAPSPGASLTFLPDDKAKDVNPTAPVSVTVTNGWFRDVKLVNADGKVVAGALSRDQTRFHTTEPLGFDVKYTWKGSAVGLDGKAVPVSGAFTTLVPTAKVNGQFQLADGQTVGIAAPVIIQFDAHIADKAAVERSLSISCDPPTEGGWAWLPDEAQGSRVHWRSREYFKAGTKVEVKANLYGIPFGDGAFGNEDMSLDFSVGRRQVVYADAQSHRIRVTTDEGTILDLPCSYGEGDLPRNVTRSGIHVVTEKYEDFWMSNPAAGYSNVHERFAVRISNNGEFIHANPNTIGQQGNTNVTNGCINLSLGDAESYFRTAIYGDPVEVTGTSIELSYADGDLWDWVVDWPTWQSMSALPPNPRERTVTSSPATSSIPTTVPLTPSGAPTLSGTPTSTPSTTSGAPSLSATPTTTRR
Experimental: as §1, §2

[4] = biological target: BlaMab (Mycobacteroides abscessus, UniProt B1MCI3); test: Mass spectrometric analysis of acyl-enzyme adducts; assay type: binding; parameters: key to Mass of protein after incubation (mass shift): (.) indicates no detectable binding; conditions: for adduct formation with BlaMab: mass spectrometry
Sequence of BlaMab (B1MCI3 entry or part of it): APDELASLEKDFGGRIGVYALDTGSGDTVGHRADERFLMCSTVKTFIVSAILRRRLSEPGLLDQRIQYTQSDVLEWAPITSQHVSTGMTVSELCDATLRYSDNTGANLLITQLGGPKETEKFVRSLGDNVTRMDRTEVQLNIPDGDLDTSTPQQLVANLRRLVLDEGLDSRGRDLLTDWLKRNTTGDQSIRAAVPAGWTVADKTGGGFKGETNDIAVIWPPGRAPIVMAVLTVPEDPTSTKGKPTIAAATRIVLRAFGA
Experimental: as §1, §2

[5] = biological target: T1, PBP-lipo (Mycobacteroides abscessus, UniProt B1MDC3); test: Bocillin-FL competitive binding assay; conditions: Bocillin-FL competition, 1:10 molar ratio
T1 construct: made in house; host or cells: Escherichia coli BL21 (DE3)
T1 sequence (B1MDC3 entry or part of it): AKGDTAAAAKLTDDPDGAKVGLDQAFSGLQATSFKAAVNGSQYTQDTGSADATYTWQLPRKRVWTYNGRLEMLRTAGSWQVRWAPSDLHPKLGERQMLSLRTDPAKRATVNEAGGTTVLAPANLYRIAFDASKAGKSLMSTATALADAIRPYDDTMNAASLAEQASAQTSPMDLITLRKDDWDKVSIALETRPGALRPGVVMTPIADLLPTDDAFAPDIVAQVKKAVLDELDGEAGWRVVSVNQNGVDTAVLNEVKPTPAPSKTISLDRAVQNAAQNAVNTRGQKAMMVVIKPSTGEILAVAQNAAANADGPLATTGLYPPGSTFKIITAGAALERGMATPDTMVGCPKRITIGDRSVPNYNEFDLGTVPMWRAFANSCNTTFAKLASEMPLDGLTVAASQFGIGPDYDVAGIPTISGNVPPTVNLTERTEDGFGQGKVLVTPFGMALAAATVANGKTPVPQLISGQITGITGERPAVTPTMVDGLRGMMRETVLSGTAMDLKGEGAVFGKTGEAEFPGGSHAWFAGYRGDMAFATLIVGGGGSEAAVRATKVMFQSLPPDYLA
Experimental: The binding of JDB/NA-1-157 and JDB/NA-1-208 to PBP-lipo was assessed using a Bocillin-FL competitive assay as previously described ([25]). Briefly, purified PBP-lipo and the compounds (at a 1:10 molar ratio) were incubated in a buffer containing 10 mM sodium phosphate (pH 7.4) and 150 mM NaCl for 2 h at room temperature, followed by additional incubation with 1 µM Bocillin FL for 4 h at 37°C. Samples were boiled and analyzed by SDS-PAGE. The PBP-lipo:Bocilli complexes were detected via fluorescence at 488 nm using an Azure 300 gel imaging system. Band intensity was quantified using GelAnalyzer software.

[6] = test system: Mab strain ATCC 19977 and three clinical isolates (Mab122, Mab686, and UH01); test: Static concentration time-kill (SCTK) assay; assay type: cell-based, Mycobacterium abscessus
Experimental: SCTK studies were conducted over 5 days in Middlebrook 7H9 broth supplemented with 10% (vol/vol) OADC, 0.2% (vol/vol) glycerol, and 0.05% (vol/vol) Tween 80 in duplicate. The efficacy of JDB/NA-1-157 and JDB/NA-208 was evaluated using Mab strain ATCC 19977 and three clinical isolates (Mab122, Mab686, and UH01) at an initial inoculum of 10^5.5–10^6.3 CFU/mL. […] Bacterial killing was assessed across a wide range of concentrations for JDB/NA-1-157 and JDB/NA-1-208 individually (0.0625–64.0 mg/L).
For the combination study, the concentrations of JDB/NA-1-157 and JDB/NA-1-208 were selected based on MIC results and time-killing profiles of the single-drug study, while the concentrations of other β-lactams and BLIs were chosen based on clinically relevant levels, determined from the predicted average unbound steady-state concentrations (fCss,avg) in plasma at clinically relevant doses ([27]). The drug concentrations used were JDB/NA-1-157, 1 mg/L; JDB/NA-1-208, 8 mg/L; imipenem, 12 mg/L; ceftaroline, 8 mg/L; cefuroxime, 8 mg/L; amoxicillin, 2 mg/L; avibactam, 4 mg/L; durlobactam, 12 mg/L; amikacin, 12 mg/L; clarithromycin, 0.3 mg/L; and cefoxitin, 7 mg/L. The SOC regimen was included for comparison of efficacy. On day 3, the broth was replaced with fresh broth containing the corresponding drug concentrations. For viable cell counts, 100 µL of undiluted or appropriately diluted samples was subcultured on Middlebrook 7H10 agar plates supplemented with 1% (vol/vol) OADC, 0.2% glycerol, and 0.05% (vol/vol) Tween 80. All samples were washed twice with sterile 0.9% saline prior to serial dilution or plating.

[7] = biological target: PBP B (Mycobacteroides abscessus, UniProt B1MP31); test: Mass spectrometric analysis of acyl-enzyme adducts; assay type: binding; conditions: PBP B (65,863); 1:10 molar ratio, 2 h; accuracy ±5 Da
Sequence of PBP B (B1MP31 entry or part of it): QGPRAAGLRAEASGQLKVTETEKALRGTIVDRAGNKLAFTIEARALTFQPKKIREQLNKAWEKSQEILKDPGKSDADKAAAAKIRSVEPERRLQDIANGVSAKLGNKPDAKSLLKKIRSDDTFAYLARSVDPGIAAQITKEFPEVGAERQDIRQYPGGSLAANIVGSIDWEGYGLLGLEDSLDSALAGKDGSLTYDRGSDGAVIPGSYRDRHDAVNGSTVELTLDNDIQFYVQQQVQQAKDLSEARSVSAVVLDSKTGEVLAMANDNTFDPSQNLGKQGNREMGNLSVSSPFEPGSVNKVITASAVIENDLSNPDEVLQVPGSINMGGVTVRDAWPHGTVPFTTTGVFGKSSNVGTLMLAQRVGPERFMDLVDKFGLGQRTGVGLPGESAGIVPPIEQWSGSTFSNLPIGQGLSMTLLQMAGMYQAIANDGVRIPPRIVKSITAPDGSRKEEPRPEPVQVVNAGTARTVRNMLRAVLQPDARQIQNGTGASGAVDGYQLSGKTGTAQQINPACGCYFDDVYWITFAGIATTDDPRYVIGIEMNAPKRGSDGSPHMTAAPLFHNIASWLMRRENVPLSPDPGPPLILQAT
Experimental: as §1
The purified proteins were incubated at room temperature with JDB/NA-1-157 and JDB/NA-1-208 at a molar ratio of 1:10 for 2 h. A quadrupole time-of-flight mass spectrometer (Waters Synapt-G2-Si) with electrospray ionization and a Waters Acquity H-Class UPLC system were used to analyze the samples. The liquid chromatography conditions were as follows: a BEH C18 column (1.7 µm, 2.1 × 50 mm) and a mobile phase consisting of 0.1% formic acid in water and 0.1% formic acid in acetonitrile, with a gradient elution from 10% to 90% acetonitrile over 11 min at a flow rate of 0.5 mL/min. […]

| Compound | Degradation percentage ([1]; 10 mg/L) | degradation after 24 h [1] | Degradation percentage ([1]; 50 mg/L) | Degradation percentage ([1]; 100 mg/L) | half-life [1] | Mass of protein after incubation (mass shift) [2] | Mass of protein after incubation (mass shift) [3] | adduct formation with BlaMab [4] | binding to PBP-lipo [5] | bacterial killing in combination ([6]; 1 mg/L with BLIs (avibactam or durlobactam) or β-lactams (cefuroxime, ceftaroline, or amoxicillin), by day 3, ATCC 19977, Mab122, Mab686) | bacterial killing on addition of avibactam ([6]; ATCC 19977, JDB/NA-1-157 1 mg/L + avibactam 4 mg/L) | log10 CFU/mL reduction ([6]; single agent, 4 mg/L, over 5 days, ATCC 19977 and clinical isolates) | bacterial killing at high concentration ([6]; single agent, 16–64 mg/L, 5 days) | Mass of protein after incubation (mass shift) [7] | Mass of protein after incubation (mass shift) ([4]; BlaMab (28,433), 1:10 molar ratio, 2 h, room temperature, accuracy ±5 Da) | effect of combining with avibactam on killing ([6]; 8 mg/L + avibactam 4 mg/L) | bacterial killing in combination ([6]; 8 mg/L with ceftaroline, cefuroxime, amoxicillin (with avibactam), or durlobactam) | log10 CFU killing ([6]; single agent, 64 mg/L) |
| --- | --- | --- | --- | --- | --- | --- | --- | --- | --- | --- | --- | --- | --- | --- | --- | --- | --- | --- |
| C[C@@H](O)[C@H]1C(=O)N2C(C(=O)O)=C(S[C@@H]3CN[C@H](C(=O)N(C)C)C3)C[C@]12C [JDB/NA-1-157] | 11.9% | 16% | 16.2% | 16% and 16.6% | 50 h | 30,134 (+383) Da | 28,219 (.) | formed a complex | form acyl-enzyme complexes | near-complete eradication | up to 2.5 log10 CFU/mL | 1.5–2.0 log10 CFU/mL | near-complete eradication |  |  |  |  |  |
| CC[C@]12CC(S[C@@H]3CN[C@H](C(=O)N(C)C)C3)=C(C(=O)O)N1C(=O)[C@@H]2[C@@H](C)O [JDB/NA-1-208] | 0.6% | approximately 10% | 10.5% |  | 66 h | 29,750 (.) | 28,617 (+397) Da | did not form an adduct | lacks binding |  |  |  |  | 66,262 (+397) Da | 28,434 (.)^b | no significant effect | near-complete eradication | ~ 3 log10 CFU |
